Converted amounts (≈) assume the structure as drawn.
Key:
[1] = tested on: Staph. albus SS 03; assay type: cell-based; settings: Brain Heart Infusion, estolate and RV11-RV15 previously hydrolized, unit assumed
[2] = tested on: Staph. albus SS 04; assay type: cell-based; settings: Brain Heart Infusion, estolate and RV11-RV15 previously hydrolized, unit assumed
[3] = tested on: Staph. aureus SS 07; assay type: cell-based; settings: Brain Heart Infusion, estolate and RV11-RV15 previously hydrolized, unit assumed
[4] = tested on: Staph. aureus SS 08; assay type: cell-based; settings: Brain Heart Infusion, estolate and RV11-RV15 previously hydrolized, unit assumed
[5] = tested on: Staph. aureus SS 09; assay type: cell-based; settings: Brain Heart Infusion, estolate and RV11-RV15 previously hydrolized, unit assumed
[6] = tested on: Staph. aureus SS 10; assay type: cell-based; settings: Brain Heart Infusion, estolate and RV11-RV15 previously hydrolized, unit assumed
[7] = tested on: Strept. haemolyticus SS 17; assay type: cell-based; settings: Brain Heart Infusion, estolate and RV11-RV15 previously hydrolized, unit assumed
[8] = tested on: Strept. haemolyticus SS 18; assay type: cell-based; settings: Brain Heart Infusion, estolate and RV11-RV15 previously hydrolized, unit assumed
[9] = tested on: Strept. faecalis SS 19; assay type: cell-based; settings: Brain Heart Infusion, estolate and RV11-RV15 previously hydrolized, unit assumed
[10] = tested on: S. lutea ATCC 9341; assay type: cell-based; settings: Brain Heart Infusion, estolate and RV11-RV15 previously hydrolized, unit assumed
[11] = tested on: B. subtilis ATCC 6633; assay type: cell-based; settings: Brain Heart Infusion, estolate and RV11-RV15 previously hydrolized, unit assumed
[12] = tested on: B. subtilis SS 127; assay type: cell-based; settings: Brain Heart Infusion, estolate and RV11-RV15 previously hydrolized, unit assumed
[13] = tested on: B. cereus ATCC 11778; assay type: cell-based; settings: Brain Heart Infusion, estolate and RV11-RV15 previously hydrolized, unit assumed
[14] = tested on: B. anthranis SS 08; assay type: cell-based; settings: Brain Heart Infusion, estolate and RV11-RV15 previously hydrolized, unit assumed
[15] = tested on: Br. melitensis SS 19; assay type: cell-based; settings: unit assumed
[16] = tested on: Br. abortus SS 7; assay type: cell-based; settings: Brain Heart Infusion, estolate and RV11-RV15 previously hydrolized, unit assumed
[17] = tested on: Citrobacter SS 05; assay type: cell-based; settings: Brain Heart Infusion, estolate and RV11-RV15 previously hydrolized, unit assumed
[18] = tested on: Citrobacter SS 09; assay type: cell-based; settings: Brain Heart Infusion, estolate and RV11-RV15 previously hydrolized, unit assumed
[19] = tested on: S. infantis SS 08; assay type: cell-based; settings: Brain Heart Infusion, estolate and RV11-RV15 previously hydrolized, unit assumed
[20] = tested on: S. heidelberg SS 18; assay type: cell-based; settings: Brain Heart Infusion, estolate and RV11-RV15 previously hydrolized, unit assumed
[21] = tested on: E. cloacae SS 07; assay type: cell-based; settings: Brain Heart Infusion, estolate and RV11-RV15 previously hydrolized, unit assumed
[22] = tested on: Ps. aeruginosa SS 10; assay type: cell-based; settings: Brain Heart Infusion, estolate and RV11-RV15 previously hydrolized, unit assumed
[23] = tested on: E. coli SS 04; assay type: cell-based; settings: Brain Heart Infusion, estolate and RV11-RV15 previously hydrolized, unit assumed
[24] = tested on: E. coli SS 05; assay type: cell-based; settings: Brain Heart Infusion, estolate and RV11-RV15 previously hydrolized, unit assumed
[25] = tested on: E. coli SS 06; assay type: cell-based; settings: Brain Heart Infusion, estolate and RV11-RV15 previously hydrolized, unit assumed
[26] = tested on: Pr. mirabilis SS 09; assay type: cell-based; settings: Brain Heart Infusion, estolate and RV11-RV15 previously hydrolized, unit assumed
[27] = tested on: Kl. aerogenes SS 71; assay type: cell-based; settings: Brain Heart Infusion, estolate and RV11-RV15 previously hydrolized, unit assumed
[28] = tested on: H. tubercolosis SS 03; assay type: cell-based; settings: Brain Heart Infusion, estolate and RV11-RV15 previously hydrolized, unit assumed
Excerpt: (§1) In the following table I the MIC/ml values are indicated corresponding to the lowest concentration capable of inducing a complete inhibition of the bacterial development.

[29] = tested on: Kl. pneumoniae SS 04; assay type: cell-based; settings: Brain Heart Infusion, estolate and RV11-RV15 previously hydrolized, unit assumed
Excerpt: as §1

[30] = tested on: Sr. marcescens SS 03; assay type: cell-based; settings: Brain Heart Infusion, estolate and RV11-RV15 previously hydrolized, unit assumed
[31] = tested on: C. diphtheriae SS 19; assay type: cell-based; settings: Brain Heart Infusion, estolate and RV11-RV15 previously hydrolized, unit assumed
[32] = tested on: D. pneumoniae SS 23; assay type: cell-based; settings: Brain Heart Infusion, estolate and RV11-RV15 previously hydrolized, unit assumed
[33] = tested on: N. gonorreae SS 27; assay type: cell-based; settings: Brain Heart Infusion, estolate and RV11-RV15 previously hydrolized, unit assumed
[34] = tested on: N. meningitidis SS 04; assay type: cell-based; settings: Brain Heart Infusion, estolate and RV11-RV15 previously hydrolized, unit assumed
[35] = tested on: H. influentiae SS 02; assay type: cell-based; settings: Brain Heart Infusion, estolate and RV11-RV15 previously hydrolized, unit assumed
[36] = tested on: Cl. tetani SS 17; assay type: cell-based; settings: Brain Heart Infusion, estolate and RV11-RV15 previously hydrolized, unit assumed
[37] = tested on: B. anthranis SS 09; assay type: cell-based; settings: B. anthranis SS 09 (14 bis); Brain Heart Infusion; estolate and RV11-RV15 previously hydrolized; unit assumed
[38] = Acute toxicity; assay type: in vivo; settings: mortality 10 days after treatment, mice
Method: The acute toxicity was assessed in Swiss white mice by oral and intravenous route. The LD50 values have been calculated by the methods of Probits, starting from the mortality recorded 10 days after the treatment.

[39] = tested on: Staph. aureus SS 07; experiment: Experimental infection induced by Staph. aureus SS 07; assay type: in vivo, Swiss white mice; settings: Staph. aureus SS 07, mg/kg of erythromycin, survival after 7 days, 10080 min
Outline: (§2)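 Swiss mice of 20 g infected parenterally with lethal amounts of Staph. aureus SS 07 or D. pneumoniae SS 23. Antibiotics were given at infection and again 6 and 24 h later. ED50 was derived from survival at 7 days.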

[40] = tested on: D. pneumoniae SS 23; experiment: Experimental infection induced by D. pneumoniae SS 23; assay type: in vivo, Swiss white mice; settings: D. pneumoniae SS 23, mg/kg of erythromycin, survival after 7 days, 10080 min
Outline: as §2

[41] = Mucolytic activity: obstruction of the bronchial tract after SO2 inhalation; assay type: in vivo, Sprague Dawley male rats; settings: i.m., 250 mg/kg; SO2, 15 days
[42] = Histological examination of bronchi after SO2 inhalation; assay type: in vivo, Sprague Dawley male rats; settings: i.m., 250 mg/kg; for histological appearance of non obstructed bronchi: free non obstructed

Structure (SMILES): CC[C@H]1OC(=O)[C@H](C)[C@@H](O[C@H]2C[C@@](C)(OC)[C@@H](O)[C@H](C)O2)[C@H](C)[C@@H](O[C@@H]2O[C@H](C)C[C@H](N(C)C)[C@H]2O)[C@](C)(O)C[C@@H](C)C(=O)[C@H](C)[C@@H](O)[C@]1(C)O [RV03, erythromycyn-thiazolidin-carboxylate]
- MIC [1]: 0.05 µg/mL (≈ 0.0681 µM)
- MIC [2]: 0.025 µg/mL (≈ 0.0341 µM)
- MIC [3]: 0.025 µg/mL (≈ 0.0341 µM)
- MIC [4]: 0.025 µg/mL (≈ 0.0341 µM)
- MIC [5]: 0.05 µg/mL (≈ 0.0681 µM)
- MIC [6]: 0.1 µg/mL (≈ 0.136 µM)
- MIC [7]: 1.5 µg/mL (≈ 2.04 µM)
- MIC [8]: 1.5 µg/mL (≈ 2.04 µM)
- MIC [9]: 0.05 µg/mL (≈ 0.0681 µM)
- MIC [10]: 0.025 µg/mL (≈ 0.0341 µM)
- MIC [11]: 0.05 µg/mL (≈ 0.0681 µM)
- MIC [12]: 0.025 µg/mL (≈ 0.0341 µM)
- MIC [13]: 0.08 µg/mL (≈ 0.109 µM)
- MIC [14]: 0.2 µg/mL (≈ 0.273 µM)
- MIC [15]: 6 µg/mL (≈ 8.18 µM)
- MIC [16]: 6 µg/mL (≈ 8.18 µM)
- MIC [17]: > 200 µg/mL
- MIC [18]: > 200 µg/mL
- MIC [19]: 200 µg/mL (≈ 273 µM)
- MIC [20]: 100 µg/mL (≈ 136 µM)
- MIC [21]: > 200 µg/mL
- MIC [22]: 100 µg/mL (≈ 136 µM)
- MIC [23]: 100 µg/mL (≈ 136 µM)
- MIC [24]: 50 µg/mL (≈ 68.1 µM)
- MIC [25]: 50 µg/mL (≈ 68.1 µM)
- MIC [26]: > 200 µg/mL
- MIC [27]: 50 µg/mL (≈ 68.1 µM)
- MIC [28]: 25 µg/mL (≈ 34.1 µM)
- MIC [29]: 100 µg/mL (≈ 136 µM)
- MIC [30]: 100 µg/mL (≈ 136 µM)
- MIC [31]: 0.025 µg/mL (≈ 0.0341 µM)
- MIC [32]: 0.025 µg/mL (≈ 0.0341 µM)
- MIC [33]: 0.8 µg/mL (≈ 1.09 µM)
- MIC [34]: 1.5 µg/mL (≈ 2.04 µM)
- MIC [35]: 1.5 µg/mL (≈ 2.04 µM)
- MIC [36]: 0.4 µg/mL (≈ 0.545 µM)
- MIC [37]: 0.4 µg/mL (≈ 0.545 µM)
- LD50 (reliability limits) ([38]; i.v., 14400 min): 491.96 (552.31-438.20) mg.kg
- LD50 (reliability limits) ([38]; os): > 3000 mg·kg
- ED50 (reliability limits) ([39]; os): 2.14 (2.42-1.89) mg/kg
- ED50 (reliability limits) ([39]; s.c.): 1.00 (1.36-0.73) mg/kg
- ED50 (reliability limits) ([40]; os): 119.21 (142.60-99.65) mg/kg
- ED50 (reliability limits) ([40]; s.c.): 47.98 (59.13-38.93) mg/kg
- Partial obstruction (% incidence) [41]: 6.66%
- Total obstruction, compact plug (% incidence) [41]: 26.66%
- Total obstruction, nodular mass (% incidence) [41]: 20%
- Total obstruction, pimply mass (% incidence) [41]: 6.66%
- histological appearance of non obstructed bronchi [42]: practically normal appearance
- histological appearance of obstructed bronchial tract [42]: an appearance like that of the control animals

Structure (SMILES): CC[C@H]1OC(=O)[C@H](C)[C@@H](O[C@H]2C[C@@](C)(OC)[C@@H](O)[C@H](C)O2)[C@H](C)[C@@H](O[C@@H]2O[C@H](C)C[C@H](N(C)C)[C@H]2O)[C@](C)(O)C[C@@H](C)C(=O)[C@H](C)[C@@H](O)[C@]1(C)O [RV04, erythromycin-S-carboxymethylcysteinate]
- MIC [1]: 0.1 µg/mL (≈ 0.136 µM)
- MIC [2]: 0.05 µg/mL (≈ 0.0681 µM)
- MIC [3]: 0.025 µg/mL (≈ 0.0341 µM)
- MIC [4]: 0.05 µg/mL (≈ 0.0681 µM)
- MIC [5]: 0.025 µg/mL (≈ 0.0341 µM)
- MIC [6]: 0.2 µg/mL (≈ 0.273 µM)
- MIC [7]: 1.5 µg/mL (≈ 2.04 µM)
- MIC [8]: 1.5 µg/mL (≈ 2.04 µM)
- MIC [9]: 0.05 µg/mL (≈ 0.0681 µM)
- MIC [10]: 0.01 µg/mL (≈ 0.0136 µM)
- MIC [11]: 0.025 µg/mL (≈ 0.0341 µM)
- MIC [12]: 0.025 µg/mL (≈ 0.0341 µM)
- MIC [13]: 0.2 µg/mL (≈ 0.273 µM)
- MIC [14]: 0.4 µg/mL (≈ 0.545 µM)
- MIC [15]: 6 µg/mL (≈ 8.18 µM)
- MIC [16]: 6 µg/mL (≈ 8.18 µM)
- MIC [17]: > 200 µg/mL
- MIC [18]: > 200 µg/mL
- MIC [19]: 100 µg/mL (≈ 136 µM)
- MIC [20]: 100 µg/mL (≈ 136 µM)
- MIC [21]: > 200 µg/mL
- MIC [22]: 100 µg/mL (≈ 136 µM)
- MIC [23]: 100 µg/mL (≈ 136 µM)
- MIC [24]: 50 µg/mL (≈ 68.1 µM)
- MIC [25]: 100 µg/mL (≈ 136 µM)
- MIC [26]: 200 µg/mL (≈ 273 µM)
- MIC [27]: 50 µg/mL (≈ 68.1 µM)
- MIC [28]: 50 µg/mL (≈ 68.1 µM)
- MIC [29]: 100 µg/mL (≈ 136 µM)
- MIC [30]: > 200 µg/mL
- MIC [31]: 0.205 µg/mL (≈ 0.279 µM)
- MIC [32]: 0.05 µg/mL (≈ 0.0681 µM)
- MIC [33]: 0.8 µg/mL (≈ 1.09 µM)
- MIC [34]: 1.5 µg/mL (≈ 2.04 µM)
- MIC [35]: 1.5 µg/mL (≈ 2.04 µM)
- MIC [36]: 0.2 µg/mL (≈ 0.273 µM)
- MIC [37]: 0.2 µg/mL (≈ 0.273 µM)
- LD50 (reliability limits) ([38]; i.v., 14400 min): 439.46 (545.44-354.08) mg.kg
- LD50 (reliability limits) ([38]; os): > 3000 mg·kg
- ED50 (reliability limits) ([39]; os): 2.31 (2.55-2.09) mg/kg
- ED50 (reliability limits) ([39]; s.c.): 1.00 (1.24-0.80) mg/kg
- ED50 (reliability limits) ([40]; os): 119.31 (152.88-92.95) mg/kg
- ED50 (reliability limits) ([40]; s.c.): 60.17 (70.74-51.18) mg/kg
- Partial obstruction (% incidence) [41]: 13.33%
- Total obstruction, compact plug (% incidence) [41]: 20%
- Total obstruction, nodular mass (% incidence) [41]: 13.33%
- Total obstruction, pimply mass (% incidence) [41]: 6.66%
- histological appearance of non obstructed bronchi [42]: practically normal appearance
- histological appearance of obstructed bronchial tract [42]: an appearance like that of the control animals
